Columns and labels:
PARP1 enzyme = PARP1 enzyme (Homo sapiens (Human), UniProt P09874); test: PARP Mass Spectroscopy Assay (PARP1 enzymatic assay, nicotinamide detection); assay type: biochemical; conditions: 5 nM PARP1, 5 uM β-NAD, 60 min at RT, NAM by mass spectrometry
Excerpt: Materials and Reagents: The PARP1 enzyme was purchased from BPS Bioscience (cat #80501). Tris-HCl, pH 8.0 was purchased from Corning (cat #46-031-CM). Magnesium chloride was purchased from Thermo Fisher Scientific (previously Honeywell Fluka, cat #63020-1L). All other assay components, activated DNA (cat #D4522), core histones (cat #SRP6590), β-Nicotinamide adenine dinucleotide (β-NAD—cat #N8285), 3ABA PARP1 small molecule inhibitor (from the PARP1 Enzyme Activity Assay kit, cat #17-10149), Sodium Chloride (NaCl, cat #56546-1L), Triton X-100 (cat #93443), Dithiothreitol (DTT, cat #43816-250 ML) were all purchased from Millipore Sigma.
Assay Buffer: The assay buffer includes the following reagents: 50 mM Tris-HCl pH 8.0, 50 mM NaCl, 10 mM, MgCl2, 0.01% Triton X-100, and 1 mM DTT.
PARP1 enzymatic assays were performed in 384-well plates in a total volume of 20 μL in the assay buffer. For concentration response curves, compounds were serially diluted 3-fold from 2 mM highest concentration […] to generate a 10-point curve, and 125 nL was transferred to the assay plate using the Echo acoustic dispenser for a final concentration range of 26.6 μM to […] in 10 μL reaction. Five microliters of 10 nM PARP1 enzyme and 100 nM core histones (2×) mix were added to the assay plates and pre-incubated for 30 mins at room temperature (RT). The reaction was initiated by the addition of a 5 μL of 10 uM β-NAD plus 0.02 mg/mL activated DNA (2×) mix. The reaction is incubated for 60 min at RT. The final concentration of the PARP1 enzyme and substrate concentrations were 5 nM and 5 uM, respectively. The positive control (high signal) and negative control (low signal) wells had 125 nL of DMSO in place of compounds. After the incubation is complete, the reaction is stopped by the addition of 10 μL of 10 uM of the 3ABA PARP1 inhibitor, incubated for 5 min at RT, and placed in the −80 C freezer for shipment to the Valo Health site in Branford Connecticut where mass spectrometry will be used to directly detect quantities of nicotinamide (NAM).
The percent inhibition of enzyme activity was calculated according to the following equation: […]
The values of Ssample, Shigh, and Slow in the equation refer to the NAM concentration detected in the assay wells, high control wells, and low control wells, respectively. To determine inhibitor IC50 values, % inhibition of the CRCs (concentration response curves) was fitted to the standard single-site four-parameter logistic equation.

[1] = molecular target: human MDR1 (P-glycoprotein; P-gp) (Homo sapiens (Human), UniProt P08183); test: bi-directional MDCK-MDR1 permeability assay; assay type: in vitro ADME; conditions: for Papp A→B: dog; for Papp A→B / efflux ratio: MDCK-MDR1; for Papp A→B / MDCK-MDR1 Papp A→B (10^−6 cm/s): apical to basolateral direction; for efflux ratio: human, read-out: MDCK-MDR1 ER; for efflux ratio / MDCK-MDR1 ER: efflux ratio B→A/A→B
Excerpt: The bi-directional assay containing a Mandin Darby canine kidney (MDCK) cell line transfected with human MDR1 gene (P-glycoprotein; P-gp) designed to overexpress the MDR1 efflux transporter, a major efflux transporter at the blood brain barrier (BBB), uses an established method that measures the rate of flux of a compound across polarized cell monolayers. As well appreciated in the art, the data generated from the MDCK-MDR1 permeability assay may be used to predict in vivo absorption of drugs. The bi-directional MDCK-MDR1 permeability assay can identify and quantify levels of active efflux. Screening compounds in both the apical to basolateral direction (A→B) and basolateral to apical direction (B→A) across the cell monolayer provides a ratio of B→A/A→B (efflux ratio; “ER”). Unlike the Caco-2 assay, the MDCK-MDR1 assay is not subject to potential efflux interference by breast cancer resistance protein (BCRP). […] The data may further be used to predict blood brain barrier (BBB) permeability via calculation from the data of log(permeability-surface area product) (“log PS”), well-understood to be predictive of the in vivo log([brain concentration]/[plasma concentration]).

Chain of human MDR1 (P-glycoprotein; P-gp) (P08183 whole entry): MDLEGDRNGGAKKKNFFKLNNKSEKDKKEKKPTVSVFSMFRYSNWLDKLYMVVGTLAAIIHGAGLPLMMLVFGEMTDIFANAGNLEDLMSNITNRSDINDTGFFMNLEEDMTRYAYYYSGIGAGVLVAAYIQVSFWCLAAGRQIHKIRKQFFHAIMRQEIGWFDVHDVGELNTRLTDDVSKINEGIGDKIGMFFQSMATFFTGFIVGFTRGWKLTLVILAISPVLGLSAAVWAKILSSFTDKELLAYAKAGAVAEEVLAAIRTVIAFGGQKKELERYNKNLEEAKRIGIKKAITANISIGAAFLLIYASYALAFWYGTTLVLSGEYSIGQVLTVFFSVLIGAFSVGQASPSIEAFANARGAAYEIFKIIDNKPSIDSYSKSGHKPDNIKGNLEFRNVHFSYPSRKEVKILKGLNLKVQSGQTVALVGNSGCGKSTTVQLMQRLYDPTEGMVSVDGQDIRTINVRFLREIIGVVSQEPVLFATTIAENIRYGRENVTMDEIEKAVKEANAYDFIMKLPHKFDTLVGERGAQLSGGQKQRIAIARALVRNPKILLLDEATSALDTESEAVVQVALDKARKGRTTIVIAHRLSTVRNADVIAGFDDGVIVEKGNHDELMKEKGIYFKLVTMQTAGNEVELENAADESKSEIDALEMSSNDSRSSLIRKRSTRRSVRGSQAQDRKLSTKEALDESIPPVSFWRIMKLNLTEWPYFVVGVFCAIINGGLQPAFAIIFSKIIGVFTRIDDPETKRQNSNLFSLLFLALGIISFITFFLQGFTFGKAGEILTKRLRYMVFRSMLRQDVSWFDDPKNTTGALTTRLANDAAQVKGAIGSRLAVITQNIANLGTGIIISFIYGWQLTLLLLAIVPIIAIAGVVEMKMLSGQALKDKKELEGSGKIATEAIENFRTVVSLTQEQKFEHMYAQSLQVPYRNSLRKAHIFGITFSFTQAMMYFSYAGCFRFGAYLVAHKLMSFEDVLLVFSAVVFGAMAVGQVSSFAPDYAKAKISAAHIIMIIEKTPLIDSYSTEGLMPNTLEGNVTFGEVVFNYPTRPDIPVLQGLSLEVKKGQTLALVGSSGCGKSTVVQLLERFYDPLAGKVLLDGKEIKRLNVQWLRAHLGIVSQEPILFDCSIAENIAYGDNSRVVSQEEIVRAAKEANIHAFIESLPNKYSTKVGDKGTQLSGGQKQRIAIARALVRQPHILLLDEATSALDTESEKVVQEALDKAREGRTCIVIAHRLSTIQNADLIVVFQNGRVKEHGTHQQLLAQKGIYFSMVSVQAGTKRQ
Chain of PARP1 enzyme (P09874 whole entry): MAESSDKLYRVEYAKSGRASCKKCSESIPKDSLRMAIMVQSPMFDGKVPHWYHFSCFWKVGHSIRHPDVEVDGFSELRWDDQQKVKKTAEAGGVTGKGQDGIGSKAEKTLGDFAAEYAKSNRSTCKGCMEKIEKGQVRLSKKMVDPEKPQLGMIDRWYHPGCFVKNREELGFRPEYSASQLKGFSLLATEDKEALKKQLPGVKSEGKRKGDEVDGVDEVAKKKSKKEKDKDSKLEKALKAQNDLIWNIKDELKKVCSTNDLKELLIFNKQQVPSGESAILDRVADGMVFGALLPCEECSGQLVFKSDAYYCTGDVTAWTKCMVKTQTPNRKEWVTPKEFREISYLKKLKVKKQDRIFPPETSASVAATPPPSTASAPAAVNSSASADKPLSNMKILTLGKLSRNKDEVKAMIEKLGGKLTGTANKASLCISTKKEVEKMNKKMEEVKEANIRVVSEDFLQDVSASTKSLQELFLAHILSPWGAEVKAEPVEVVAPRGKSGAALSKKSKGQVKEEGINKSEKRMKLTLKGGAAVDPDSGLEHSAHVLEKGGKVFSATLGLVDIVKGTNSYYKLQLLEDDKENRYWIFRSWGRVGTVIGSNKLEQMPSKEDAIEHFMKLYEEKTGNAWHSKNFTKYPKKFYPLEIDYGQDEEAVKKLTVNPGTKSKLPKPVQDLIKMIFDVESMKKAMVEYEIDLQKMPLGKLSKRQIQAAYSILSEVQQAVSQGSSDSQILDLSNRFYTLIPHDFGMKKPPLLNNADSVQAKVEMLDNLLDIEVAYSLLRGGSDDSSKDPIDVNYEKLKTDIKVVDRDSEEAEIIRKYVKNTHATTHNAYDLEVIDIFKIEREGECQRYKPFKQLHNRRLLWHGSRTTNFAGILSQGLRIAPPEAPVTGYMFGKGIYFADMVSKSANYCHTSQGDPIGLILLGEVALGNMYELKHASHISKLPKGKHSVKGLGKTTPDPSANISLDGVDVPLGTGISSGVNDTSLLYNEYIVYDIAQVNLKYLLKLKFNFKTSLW

Row | IC50 (PARP1 enzyme) | Papp A→B [1] | efflux ratio [1] | MDCK-MDR1 Papp A→B (10^−6 cm/s) [1] | MDCK-MDR1 ER [1] | Compound
1 | 45 nM | 0.498 ×10⁻⁶ cm/s | 30.4 |  |  | CN1CCC([C@H]2Nc3cc(F)cc4c(=O)[nH]nc(c34)[C@H]2c2ccc(F)cc2F)CC1 [Compound 0110B, (8R,9S)-9-(2,4-difluorophenyl)-5-fluoro-8-(1-methylpiperidin-4-yl)-2,7,8,9-tetrahydro-3H-pyrido[4,3,2-de]phthalazin-3-one]
2 | 32 nM | 16.1 ×10⁻⁶ cm/s | 0.995 |  |  | O=c1[nH]nc2c3c(cc(F)cc13)NCC2c1ccc(F)cc1F (stereo not shown) [Compound 0114-5, 9-(2,4-difluorophenyl)-5-fluoro-2,7,8,9-tetrahydro-3H-pyrido[4,3,2-de]phthalazin-3-one]
3 | 123 nM | 0.471 ×10⁻⁶ cm/s | 30.8 |  |  | CN1CCC([C@@H]2Nc3cc(F)cc4c(=O)[nH]nc(c34)[C@H]2c2ccccc2Cl)CC1 [Compound 0116B, (8S,9S)-9-(2-chlorophenyl)-5-fluoro-8-(1-methylpiperidin-4-yl)-2,7,8,9-tetrahydro-3H-pyrido[4,3,2-de]phthalazin-3-one]
4 | 87 nM | 12.9 ×10⁻⁶ cm/s | 0.655 |  |  | O=c1[nH]nc2c3c(cc(F)cc13)NC[C@H]2c1ccccc1Cl [Compound 0120A, (R)-9-(2-chlorophenyl)-5-fluoro-2,7,8,9-tetrahydro-3H-pyrido[4,3,2-de]phthalazin-3-one]
5 | 47 nM | 13.3 ×10⁻⁶ cm/s | 0.612 |  |  | O=c1[nH]nc2c3c(cc(F)cc13)NC[C@@H]2c1ccccc1Cl [Compound 0120B, (S)-9-(2-chlorophenyl)-5-fluoro-2,7,8,9-tetrahydro-3H-pyrido[4,3,2-de]phthalazin-3-one]
6 | 32 nM |  |  | 5.66 10^−6 cm/s | 3.06 | O=c1[nH]nc2c3c(cc(F)cc13)N[C@H]([C@H]1CCOC1)[C@H]2c1ccccc1Cl [Compound 0121A]
7 | 43 nM |  |  | 3.66 10^−6 cm/s | 5.77 | O=c1[nH]nc2c3c(cc(F)cc13)N[C@@H]([C@@H]1CCOC1)[C@@H]2c1ccccc1Cl [Compound 0121D]
8 | 10 nM | 11 ×10⁻⁶ cm/s | 0.658 |  |  | C[C@H]1Nc2cc(F)cc3c(=O)[nH]nc(c23)[C@@H]1c1ccccc1Cl [Compound 0172A, (8R,9R)-9-(2-chlorophenyl)-5-fluoro-8-methyl-2,7,8,9-tetrahydro-3H-pyrido[4,3,2-de]phthalazin-3-one]
9 | 36 nM | 14 ×10⁻⁶ cm/s | 0.532 |  |  | C[C@H]1Nc2cc(F)cc3c(=O)[nH]nc(c23)[C@@H]1c1ccc(F)cc1F [Compound 0174A, (8R,9R)-9-(2,4-difluorophenyl)-5-fluoro-8-methyl-2,7,8,9-tetrahydro-3H-pyrido[4,3,2-de]phthalazin-3-one]
10 |  |  |  | 1.2 10^−6 cm/s | 12.3 | Cn1ncnc1[C@H]1CNc2cc(F)cc3c(=O)[nH]nc1c23 [Compound 0200B]
11 |  |  |  | 0.567 10^−6 cm/s | 24.7 | C[C@@H]1Nc2cc(F)cc3c(=O)[nH]nc(c23)[C@H]1c1ncnn1C [Compound 0201B]
12 |  |  |  | 0.77 10^−6 cm/s | 28.5 | CC[C@@H]1Nc2cc(F)cc3c(=O)[nH]nc(c23)[C@H]1c1ncnn1C [Compound 0202B]
13 |  |  |  | 0.568 10^−6 cm/s | 21.7 | Cn1ncnc1[C@@H]1c2n[nH]c(=O)c3cc(F)cc(c23)N[C@H]1C1CC1 [Compound 0203B]
14 |  |  |  | 0.373 10^−6 cm/s | 33.3 | Cn1ncnc1[C@H]1c2n[nH]c(=O)c3cc(F)cc(c23)N[C@@H]1C1CCC(F)(F)CC1 [Compound 0215A]
15 |  |  |  | 0.335 10^−6 cm/s | 3.98 | CC(=O)N1CCC([C@@H]2Nc3cc(F)cc4c(=O)[nH]nc(c34)[C@H]2c2ncnn2C)CC1 [Compound 0218B]
16 | 4 nM |  |  |  |  | O=c1[nH]nc2c3c(cc(F)cc13)N[C@@H](C1(F)CC1)[C@@H]2c1ccc(Cl)cc1F [Compound 0255A]

Row | IC50 (PARP1 enzyme) | Papp A→B [1] | efflux ratio [1] | MDCK-MDR1 Papp A→B (10^−6 cm/s) [1] | MDCK-MDR1 ER [1] | Compound
17 | 103 nM |  |  |  |  | O=c1[nH]nc2c3c(cc(F)cc13)NC(C1(F)CC1)[C@H]2c1ccc(Cl)cc1F (stereo partly shown) [Compound 0255B]
18 |  |  |  | 5.76 10^−6 cm/s | 3.37 | O=c1[nH]nc2c3c(cc(F)cc13)N[C@@H](C1CCN(C3CCC(F)(F)CC3)CC1)[C@@H]2c1ccc(Cl)cc1F [Compound 0256A]
19 | 593 nM |  |  |  |  | O=c1[nH]nc2c3c(cc(F)cc13)NC(COCc1ccccc1)C2c1ccccc1Cl (stereo not shown) [Compound 0257-4]
20 | 2 nM |  |  |  |  | O=c1[nH]nc2c3c(cc(F)cc13)N[C@H](C1(F)CC1)[C@H]2c1ccccc1Cl [Compound 0260A]
21 | 106 nM |  |  |  |  | O=c1[nH]nc2c3c(cc(F)cc13)NC(C1(F)CC1)[C@H]2c1ccccc1Cl (stereo partly shown) [Compound 0260B]
22 | 896 nM |  |  |  |  | O=c1[nH]nc2c3c(cc(F)cc13)N[C@H](C1CCN(C3CCC(F)(F)CC3)CC1)[C@H]2c1ccccc1Cl [Compound 0261A]
23 | 301 nM |  |  |  |  | O=c1[nH]nc2c3c(cc(F)cc13)N[C@@H](C1CCN(C3CCC(F)(F)CC3)CC1)[C@@H]2c1ccccc1Cl [Compound 0261B]
24 | 1680 nM |  |  |  |  | Cn1ncnc1[C@@H]1c2n[nH]c(=O)c3cc(F)cc(c23)N[C@H]1C1CCN(C2CCC(F)(F)CC2)CC1 [Compound 0266A]
25 | 5780 nM |  |  |  |  | Cn1ncnc1[C@H]1c2n[nH]c(=O)c3cc(F)cc(c23)N[C@@H]1C1CCN(C2CCC(F)(F)CC2)CC1 [Compound 0266B]
26 | 13 nM |  |  |  |  | O=c1[nH]nc2c3c(cc(F)cc13)NC(COCc1ccccc1)C2c1ccc(F)cc1F (stereo not shown) [Compound 0267-4]
27 | 4 nM |  |  |  |  | O=c1[nH]nc2c3c(cc(F)cc13)NC(C1CCN(C3CCC(F)(F)CC3)CC1)C2c1ccc(F)cc1F (stereo not shown) [Compound 0271-6]
28 | 936 nM |  |  |  |  | O=c1[nH]nc2c3c(cc(F)cc13)N[C@@H](C1CCN(C3CCC(F)(F)CC3)CC1)[C@@H]2c1ccc(F)cc1F [Compound 0271A]
29 | 7 nM |  |  |  |  | O=c1[nH]nc2c3c(cc(F)cc13)N[C@@H](C1CCN(C3CCC(F)(F)CC3)CC1)[C@@H]2c1ccc(F)cc1F [Compound 0271B]
30 | 281 nM |  |  |  |  | N#Cc1ccc([C@H]2c3n[nH]c(=O)c4cc(F)cc(c34)N[C@@H]2C2CCN(C3CCC(F)(F)CC3)CC2)c(F)c1 [Compound 0276A]
31 | 30 nM |  |  |  |  | N#Cc1ccc([C@H]2c3n[nH]c(=O)c4cc(F)cc(c34)N[C@@H]2C2CCN(C3CCC(F)(F)CC3)CC2)c(F)c1 [Compound 0276B]

Row | Compound | IC50 (PARP1 enzyme) | Papp A→B [1] | efflux ratio [1] | MDCK-MDR1 Papp A→B (10^−6 cm/s) [1] | MDCK-MDR1 ER [1]
32 | O=c1[nH]nc2c3c(cc(F)cc13)N[C@H]([C@H]1CCOC1)[C@H]2c1ccc(F)cc1F [Compound 0115A] | 10 nM |  |  | 8.3 10^−6 cm/s | 1.73
33 | O=c1[nH]nc2c3c(cc(F)cc13)N[C@H]([C@@H]1CCOC1)[C@H]2c1ccc(F)cc1F [Compound 0115B] | 190 nM |  |  | 9.05 10^−6 cm/s | 2.04
34 | O=c1[nH]nc2c3c(cc(F)cc13)N[C@@H]([C@H]1CCOC1)[C@@H]2c1ccc(F)cc1F [Compound 0115C] | 252 nM |  |  | 4.82 10^−6 cm/s | 4.67
35 | O=c1[nH]nc2c3c(cc(F)cc13)N[C@@H]([C@@H]1CCOC1)[C@@H]2c1ccc(F)cc1F [Compound 0115D] |  |  |  | 4.94 10^−6 cm/s | 4.28
